Laboratory results taken from US11505556B2, “Halogenated derivatives of morphinans and uses thereof” (Xalud Therapeutics, Inc., priority 2017, dated 2022).
Where “and” joins values, the source holds several entries; their conditions need not be identical. Identical values can stand only once. Like-named read-outs stand apart in the source and are kept apart here.

Tests used:
[1] = system: Human hepatocytes; assay: Hepatocyte elimination of parent compound; details: cultured hepatocytes
[2] = in vitro; details: dog, cultured hepatocytes
[3] = molecular target: hERG (Homo sapiens, UniProt Q12809); assay: hERG inhibition
Sequence of hERG (Q12809 whole entry): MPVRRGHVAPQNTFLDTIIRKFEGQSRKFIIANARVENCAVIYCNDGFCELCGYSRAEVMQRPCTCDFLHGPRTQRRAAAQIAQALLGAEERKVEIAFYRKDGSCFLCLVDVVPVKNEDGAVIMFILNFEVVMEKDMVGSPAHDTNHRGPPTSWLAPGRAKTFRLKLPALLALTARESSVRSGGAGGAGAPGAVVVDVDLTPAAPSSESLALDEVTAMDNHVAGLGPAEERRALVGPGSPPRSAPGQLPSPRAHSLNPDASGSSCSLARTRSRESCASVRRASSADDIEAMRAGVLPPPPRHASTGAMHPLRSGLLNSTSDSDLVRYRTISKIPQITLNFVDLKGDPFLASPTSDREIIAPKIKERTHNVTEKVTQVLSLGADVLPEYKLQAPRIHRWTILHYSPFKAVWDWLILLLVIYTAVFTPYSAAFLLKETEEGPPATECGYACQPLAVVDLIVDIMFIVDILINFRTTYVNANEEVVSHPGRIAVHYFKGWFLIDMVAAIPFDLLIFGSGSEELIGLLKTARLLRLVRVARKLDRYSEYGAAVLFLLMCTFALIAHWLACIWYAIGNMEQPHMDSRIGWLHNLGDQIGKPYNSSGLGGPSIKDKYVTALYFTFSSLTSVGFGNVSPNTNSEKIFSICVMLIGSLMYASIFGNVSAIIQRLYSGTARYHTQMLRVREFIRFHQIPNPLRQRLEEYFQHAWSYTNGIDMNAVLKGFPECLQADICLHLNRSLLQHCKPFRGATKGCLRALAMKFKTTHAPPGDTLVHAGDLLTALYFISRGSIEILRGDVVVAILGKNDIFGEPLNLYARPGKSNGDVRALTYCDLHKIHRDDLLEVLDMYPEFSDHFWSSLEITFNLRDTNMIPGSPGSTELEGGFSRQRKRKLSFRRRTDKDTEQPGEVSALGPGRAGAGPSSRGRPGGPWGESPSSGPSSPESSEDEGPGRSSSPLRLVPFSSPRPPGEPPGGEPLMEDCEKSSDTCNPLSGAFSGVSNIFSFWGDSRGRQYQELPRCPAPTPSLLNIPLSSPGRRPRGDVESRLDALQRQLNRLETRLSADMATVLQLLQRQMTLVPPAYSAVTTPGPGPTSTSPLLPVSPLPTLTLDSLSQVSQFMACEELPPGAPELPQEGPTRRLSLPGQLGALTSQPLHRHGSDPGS

[4] = in vitro; details: mouse, hepatocytes
[5] = molecular target: Protein tyrosine kinase LCK (Homo sapiens, UniProt P06239); assay: Off-target screening; type: biochemical
Excerpt: (§1) In addition to the animal studies presented above in Examples 1-9, the results of in vitro testing of several of the compounds (i.e., XT-203, XT-204, and XT-206 through XT-217) are shown in Table 5 and Table 6. […]. Nine additional compounds had two or fewer off-target hits in the screening. […] These compounds spanned all of the tested N-modification classes. […]. Thus, the medicinal chemistry approach taken in this series of fluorinated compounds can yield low off-target activity and longer metabolic lifetime while preserving TLR4 antagonism. It is appreciated that further development of compounds in this class, using techniques known to those skilled in the art, may yield additional compounds with desirable pharmacologic and toxicologic characteristics.

[6] = Hepatocyte elimination of parent compound, spread across species; type: in vitro ADME; details: mouse, rat, dog, monkey, human, hepatocytes; lowest to highest species value; read-out: range of hepatocyte elimination half-life values across species
Description: Hepatocyte Elimination: (+)-NTX, AK-17 and XT-203 were incubated with cultured hepatocytes from the species listed in FIG. 9 and Table 4, and samples of the culture supernatant were collected over time. Samples were concentrated by nitrogen drying followed by reconstitution with 40% methanol for LC/MS analysis The data points were analyzed using the WinNonLin pharmacokinetics software package, and a half-life was determined that describes the rate of parent elimination. […].
as §1

[7] = in vitro; details: monkey, cultured hepatocytes
[8] = in vitro; details: rat, cultured hepatocytes
[9] = in vitro; details: human, cultured hepatocytes
[10] = molecular target: iNOS (Homo sapiens, UniProt P35228); assay: iNOS enzyme inhibition; type: biochemical
Sequence of iNOS (P35228 whole entry): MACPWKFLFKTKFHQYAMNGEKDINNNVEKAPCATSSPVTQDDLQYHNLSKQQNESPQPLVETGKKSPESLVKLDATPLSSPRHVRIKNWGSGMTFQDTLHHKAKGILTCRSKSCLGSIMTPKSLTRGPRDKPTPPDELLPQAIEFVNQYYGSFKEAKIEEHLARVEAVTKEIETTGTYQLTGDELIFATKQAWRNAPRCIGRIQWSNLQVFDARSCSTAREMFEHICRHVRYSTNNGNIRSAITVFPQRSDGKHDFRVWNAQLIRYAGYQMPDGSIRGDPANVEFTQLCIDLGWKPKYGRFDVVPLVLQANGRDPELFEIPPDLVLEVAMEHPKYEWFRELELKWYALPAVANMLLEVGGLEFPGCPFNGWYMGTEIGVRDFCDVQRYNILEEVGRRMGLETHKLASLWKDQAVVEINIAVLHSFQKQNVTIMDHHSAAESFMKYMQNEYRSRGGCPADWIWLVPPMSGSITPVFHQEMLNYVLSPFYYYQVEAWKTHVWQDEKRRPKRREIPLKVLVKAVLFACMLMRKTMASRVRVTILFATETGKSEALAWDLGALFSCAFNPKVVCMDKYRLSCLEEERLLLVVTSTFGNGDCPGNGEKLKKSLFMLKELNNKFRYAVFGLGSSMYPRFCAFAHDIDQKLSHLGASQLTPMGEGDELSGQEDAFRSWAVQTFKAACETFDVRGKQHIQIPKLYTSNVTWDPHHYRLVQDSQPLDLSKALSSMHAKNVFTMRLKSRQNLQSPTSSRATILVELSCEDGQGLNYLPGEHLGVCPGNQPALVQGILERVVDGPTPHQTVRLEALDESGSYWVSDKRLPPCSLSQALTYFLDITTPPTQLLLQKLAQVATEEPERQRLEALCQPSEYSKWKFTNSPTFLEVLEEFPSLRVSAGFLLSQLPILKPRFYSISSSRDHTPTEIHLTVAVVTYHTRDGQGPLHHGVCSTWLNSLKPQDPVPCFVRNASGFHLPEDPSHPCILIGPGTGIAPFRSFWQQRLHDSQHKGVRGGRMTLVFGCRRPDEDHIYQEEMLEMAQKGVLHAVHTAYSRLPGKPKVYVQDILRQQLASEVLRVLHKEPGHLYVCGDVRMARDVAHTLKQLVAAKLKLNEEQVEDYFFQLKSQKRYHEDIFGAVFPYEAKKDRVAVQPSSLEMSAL

[11] = system: off-target screening panel; assay: Off-target inhibition screening (whole panel); details: 10 μM test concentration; hit = inhibition at or above the 50% level
Excerpt: as §1

[12] = system: TLR4 (LPS-stimulated NO production, BV-2 mouse microglia cell line); assay: NO assay: inhibition of LPS-induced NO production in BV-2 microglia (iNOS cellular); type: cell-based; details: Mus musculus
Excerpt: NO assay: Microglia are the resident cells of the innate immune system in the central nervous system, and TLR4 is primarily expressed by microglia rather than astrocytes or neurons in the CNS. Given this expression profile, the BV-2 mouse microglia cell line was used as the model system of microglia, as these cells recapitulate many of the responses of primary microglia with high fidelity. TLR4 activation induces the downstream production of the inflammatory factor NO, which contributes to the development of neuropathic pain and drug addiction. BV-2 murine microglia were grown in supplemented DMEM (including 10% FBS, 50 unit mL^−1 penicillin, 50 μg·mL^−1 streptomycin). BV-2 cells were detached from the flask by trypsin digestion when ˜80% confluence was reached. Cells were seeded at a density of 4×10^4 cells per well in 96-well plates. After overnight incubation, media was aspirated and changed to DMEM media without FBS. Cells were then treated with LPS (200 ng/ml) and different concentrations of the testing compounds. After 24 h treatment, 100 μL of supernatant media was removed after cells were treated for 24 h and added to flat black 96-well microfluor plates (Thermo Scientific, MA, USA). Subsequently, 10 μL of 2, 3-diaminonaphthalene (0.05 mg·mL^−1 in 0.62 M HCl) was added to each well and incubated for 15 min. The reaction was quenched by addition of 5 μL of 3 M NaOH and the plate was read on a Beckman Coulter DTX880 reader (Fullerton, Calif., USA) with excitation at 360 nm and emission at 430 nm.
N chain NTX: This experimentation involved an in vitro assay where mouse BV2 cells were treated with LPS, which results in the release of nitric oxide (NO). Blockade of TLR4 activity results in reduced NO production. Therefore, IC50 values were determined for test compounds that antagonize TLR4 activity. A series of test compounds were prepared, with different N-alkyl chains replacing the cyclopropyl methyl found in naltrexone. Cell viability was also measured by a standard assay, e.g., measurement of the release of cytoplasm-resident enzymes in the tissue culture supernatant or media to detect cell loss/lysis/rupture. A dose-inhibition curve was generated by testing the TLR4 antagonist compound for the ability to block LPS-stimulated iNOs induction. In FIG. 7, the inhibition levels across a range of doses are graphed, along with a regression curve. The IC50 value—50% inhibition level—is also provided, graphed against the length of the alkyl chain. Note that with longer N-alkyl chain the IC50 was reduced, although cell viability became problematic.
FIGS. 8B to 8D show the results of the inhibition of NO production from LPS-stimulated BV2 cells using the assay described above.

[13] = molecular target: Tachykinin NK1 (Homo sapiens, UniProt P25103); assay: Off-target screening; type: binding
Sequence of Tachykinin NK1 (P25103 whole entry): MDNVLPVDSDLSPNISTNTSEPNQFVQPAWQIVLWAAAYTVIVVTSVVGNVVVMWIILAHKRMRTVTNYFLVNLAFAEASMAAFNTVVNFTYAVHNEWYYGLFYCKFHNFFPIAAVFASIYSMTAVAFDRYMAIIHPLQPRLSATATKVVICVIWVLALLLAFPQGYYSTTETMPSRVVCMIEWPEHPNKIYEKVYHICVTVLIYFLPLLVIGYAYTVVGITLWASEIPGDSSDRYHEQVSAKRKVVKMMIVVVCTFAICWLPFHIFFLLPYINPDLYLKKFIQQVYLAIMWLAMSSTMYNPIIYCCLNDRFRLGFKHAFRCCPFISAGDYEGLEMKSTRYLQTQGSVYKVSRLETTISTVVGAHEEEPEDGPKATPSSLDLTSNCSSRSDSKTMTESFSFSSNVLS
Excerpt: as §1

[14] = molecular target: Dopamine D2S (Homo sapiens, UniProt P14416); assay: Off-target screening; type: binding
Excerpt: as §1

[15] = system: Sodium channel site 2; assay: Off-target screening; type: binding
Excerpt: as §1

[16] = molecular target: Cannabinoid CB1 (Homo sapiens, UniProt P21554); assay: Off-target screening; type: binding
Sequence of Cannabinoid CB1 (P21554 whole entry): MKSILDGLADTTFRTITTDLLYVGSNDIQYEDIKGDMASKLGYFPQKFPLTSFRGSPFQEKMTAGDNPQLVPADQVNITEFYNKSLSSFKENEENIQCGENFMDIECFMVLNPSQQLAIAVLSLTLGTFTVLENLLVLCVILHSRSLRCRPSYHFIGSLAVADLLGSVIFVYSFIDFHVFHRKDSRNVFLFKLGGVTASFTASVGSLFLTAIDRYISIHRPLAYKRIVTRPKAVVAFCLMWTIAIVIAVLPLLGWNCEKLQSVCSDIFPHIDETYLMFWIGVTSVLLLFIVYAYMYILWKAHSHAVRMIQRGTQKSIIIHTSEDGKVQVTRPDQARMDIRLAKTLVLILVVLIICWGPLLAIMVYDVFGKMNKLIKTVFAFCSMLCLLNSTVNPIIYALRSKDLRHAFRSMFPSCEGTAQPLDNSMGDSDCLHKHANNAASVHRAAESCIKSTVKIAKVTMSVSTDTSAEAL
Excerpt: as §1

[17] = molecular target: T1, Adrenergic α2A (Homo sapiens, UniProt P08913); assay: Off-target screening; type: binding; details: 10 μM
T1 sequence (P08913 1-465): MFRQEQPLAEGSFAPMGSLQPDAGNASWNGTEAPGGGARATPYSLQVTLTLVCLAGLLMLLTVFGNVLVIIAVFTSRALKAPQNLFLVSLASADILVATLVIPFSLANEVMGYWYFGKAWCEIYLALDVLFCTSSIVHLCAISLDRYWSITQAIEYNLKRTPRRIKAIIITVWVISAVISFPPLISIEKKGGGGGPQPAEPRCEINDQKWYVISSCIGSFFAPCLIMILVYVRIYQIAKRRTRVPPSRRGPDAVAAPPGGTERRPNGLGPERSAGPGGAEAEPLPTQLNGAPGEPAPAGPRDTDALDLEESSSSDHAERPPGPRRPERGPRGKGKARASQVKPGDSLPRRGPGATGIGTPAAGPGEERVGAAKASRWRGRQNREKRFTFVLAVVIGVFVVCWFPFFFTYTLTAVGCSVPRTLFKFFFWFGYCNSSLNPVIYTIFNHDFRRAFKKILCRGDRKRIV
Excerpt: as §1

[18] = molecular target: Opiate κ (OP2, KOP) (Homo sapiens, UniProt P41145); assay: Off-target screening; type: binding
Sequence of Opiate κ (OP2, KOP) (P41145 whole entry): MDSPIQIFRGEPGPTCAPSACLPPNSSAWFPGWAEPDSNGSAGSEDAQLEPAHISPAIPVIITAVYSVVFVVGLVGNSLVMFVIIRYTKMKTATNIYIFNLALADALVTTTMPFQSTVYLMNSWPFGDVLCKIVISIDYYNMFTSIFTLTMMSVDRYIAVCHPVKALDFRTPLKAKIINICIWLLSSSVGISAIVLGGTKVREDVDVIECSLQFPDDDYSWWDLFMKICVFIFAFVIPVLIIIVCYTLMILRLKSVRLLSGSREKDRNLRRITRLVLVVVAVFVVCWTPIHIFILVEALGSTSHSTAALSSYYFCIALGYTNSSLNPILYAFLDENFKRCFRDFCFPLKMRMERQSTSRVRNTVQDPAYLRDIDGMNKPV
Excerpt: as §1

[19] = molecular target: Adrenergic α1D (Homo sapiens, UniProt P25100); assay: Off-target screening; type: binding
Excerpt: as §1

[20] = molecular target: Histamine H2 (Homo sapiens, UniProt P25021); assay: Off-target screening; type: binding
Sequence of Histamine H2 (P25021 whole entry): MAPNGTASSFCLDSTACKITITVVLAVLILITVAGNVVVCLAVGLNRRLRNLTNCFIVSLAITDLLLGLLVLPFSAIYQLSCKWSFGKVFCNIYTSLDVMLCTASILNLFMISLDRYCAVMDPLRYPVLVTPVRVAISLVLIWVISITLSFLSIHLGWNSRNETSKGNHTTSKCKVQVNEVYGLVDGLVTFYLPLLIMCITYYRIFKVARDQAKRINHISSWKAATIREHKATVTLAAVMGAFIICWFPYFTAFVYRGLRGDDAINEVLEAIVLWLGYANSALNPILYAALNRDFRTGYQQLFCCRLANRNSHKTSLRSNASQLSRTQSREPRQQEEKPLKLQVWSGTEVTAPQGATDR
Excerpt: as §1

[21] = molecular target: Transporter, Norepinephrine (NET) (Homo sapiens, UniProt P23975); assay: Off-target screening; type: binding
Sequence of Transporter, Norepinephrine (NET) (P23975 whole entry): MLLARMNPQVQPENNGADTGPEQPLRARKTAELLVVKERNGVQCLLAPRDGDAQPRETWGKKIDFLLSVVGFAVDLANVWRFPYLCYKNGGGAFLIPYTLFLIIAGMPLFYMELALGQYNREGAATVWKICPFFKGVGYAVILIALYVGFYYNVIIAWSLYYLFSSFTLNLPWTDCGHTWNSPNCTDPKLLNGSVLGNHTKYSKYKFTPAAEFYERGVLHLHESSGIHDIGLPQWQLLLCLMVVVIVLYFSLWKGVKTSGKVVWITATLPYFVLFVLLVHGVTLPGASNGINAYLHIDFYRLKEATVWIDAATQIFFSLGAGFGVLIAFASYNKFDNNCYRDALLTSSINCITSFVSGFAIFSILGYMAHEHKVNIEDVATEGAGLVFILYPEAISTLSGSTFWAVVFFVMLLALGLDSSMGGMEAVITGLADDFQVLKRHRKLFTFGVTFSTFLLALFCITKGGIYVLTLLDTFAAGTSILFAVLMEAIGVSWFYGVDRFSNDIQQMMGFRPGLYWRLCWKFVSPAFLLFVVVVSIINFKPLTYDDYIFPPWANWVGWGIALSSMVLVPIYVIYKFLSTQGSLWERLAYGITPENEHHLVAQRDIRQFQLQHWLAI
Excerpt: as §1

[22] = molecular target: Opiate μ (OP3, MOP) (Homo sapiens, UniProt P35372); assay: Off-target screening; type: binding
Excerpt: as §1

[23] = system: Calcium channel L-Type, phenylalkylamine; assay: Off-target screening; type: binding
Excerpt: as §1

[24] = molecular target: Adrenergic α2B (Homo sapiens, UniProt P18089); assay: Off-target screening; type: binding
Excerpt: as §1

[25] = system: Calcium channel L-Type, benzothiazepine; assay: Off-target screening; type: binding
Excerpt: as §1

[26] = system: Adrenergic α1A; assay: Off-target screening; type: binding
Excerpt: as §1

[27] = molecular target: Dopamine D2L (Homo sapiens, UniProt P14416); assay: Off-target screening; type: binding
Sequence of Dopamine D2L (P14416 whole entry): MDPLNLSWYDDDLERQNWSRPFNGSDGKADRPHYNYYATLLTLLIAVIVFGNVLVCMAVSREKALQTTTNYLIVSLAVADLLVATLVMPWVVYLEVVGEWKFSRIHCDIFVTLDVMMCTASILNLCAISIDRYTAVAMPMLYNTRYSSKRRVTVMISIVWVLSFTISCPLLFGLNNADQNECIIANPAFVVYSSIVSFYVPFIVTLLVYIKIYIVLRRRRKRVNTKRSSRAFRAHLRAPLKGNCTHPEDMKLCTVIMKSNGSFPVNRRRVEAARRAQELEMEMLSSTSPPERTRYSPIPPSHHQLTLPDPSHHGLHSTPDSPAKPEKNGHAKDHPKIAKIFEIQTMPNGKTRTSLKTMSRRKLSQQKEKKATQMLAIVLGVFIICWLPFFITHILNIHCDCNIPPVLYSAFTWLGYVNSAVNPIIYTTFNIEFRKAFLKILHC
Excerpt: as §1

[28] = system: Adrenergic α1B; assay: Off-target screening; type: binding
Excerpt: as §1

[29] = system: Transporter, Adenosine; assay: Off-target screening; type: binding
Excerpt: as §1

[30] = molecular target: Progesterone, PR-B (Homo sapiens, UniProt P06401); assay: Off-target screening; type: binding
Excerpt: as §1

[31] = molecular target: Transporter, Dopamine (DAT) (Homo sapiens, UniProt Q01959); assay: Off-target screening; type: binding
Excerpt: as §1

[32] = system: GABA A, chloride channel, TBOB; assay: Off-target screening; type: binding
Excerpt: as §1

[33] = molecular target: Vasopressin V1A (Homo sapiens, UniProt P37288); assay: Off-target screening; type: binding
Excerpt: as §1

[34] = molecular target: Adenosine A2A (Homo sapiens, UniProt P29274); assay: Off-target screening; type: binding
Excerpt: as §1

[35] = Microglia, Table 6, unit inferred, footnote: Indicator of TL4 antagonism
[36] = LPS (200 ng/ml), 24 h, BV-2 cells, Table 3

## COc1ccc2c3c1O[C@@H]1C(F)CCC4[C@H](C2)N(S(C)(=O)=O)CC[C@]341 (some centres unmarked) [XT-209]
[1]
  parent duration in human hepatocytes relative to XT-203: longer parent duration than XT-203
[2]
  half-life: 89 min
[3]
  IC50: > 10 µM
[4]
  half-life: 22.4 min
[5]
  inhibition at 10 µM: 61%
[6]
  half-life: 15.3 to 296 min
[7]
  half-life: 39.4 min
[8]
  half-life: 15.3 min
[9]
  half-life: 296 min
[10]
  IC50: > 10 µM
[10]; read-out: iNOS enzyme, Table 6, unit inferred
  IC50: > 10 µM
[11]
  off-target hits in the screening: one off-target hit
[12]; [35]
  IC50: > 10 µM
[12]; [36]
  IC50: > 10 µM

## COc1ccc2c3c1O[C@@H]1C(F)CCC4[C@H](C2)N(C(C)Cc2ccccc2)CC[C@]341 (some centres unmarked) [XT-215]
[2]
  half-life: 19.6 min
[3]; human
  IC50: 10 µM
[3]; human, read-out: hERG inhibition, percent
  inhibition at 10 µM: 51%
[4]
  half-life: 20.7 min
[7]
  half-life: 22.1 min
[8]
  half-life: 12.7 min
[9]
  half-life: 65.6 min
[12]; [35]
  IC50: > 10 µM
[12]; [36]
  IC50: > 10 µM
[13]
  inhibition at 10 µM: 55%
[14]
  inhibition at 10 µM: 81%
[15]
  % Inhibition at 10 μM, Sodium channel site 2: 101%
[16]
  inhibition at 10 µM: 57%
[17]
  inhibition at 10 µM: 96%
[18]
  inhibition at 10 µM: 79%
[19]
  inhibition at 10 µM: 92%
[20]
  inhibition at 10 µM: 82%
[21]
  inhibition at 10 µM: 61%
[22]
  inhibition at 10 µM: 79%
[23]
  % Inhibition at 10 μM, Calcium channel L-Type phenylalkylamine: 73% and 51%
[24]
  inhibition at 10 µM: 105%
[25]
  % Inhibition at 10 μM, Calcium channel L-Type, benzothiazepine: 51% and 73%
[26]
  % Inhibition at 10 μM, Adrenergic α1A: 85% and 99%
[27]
  inhibition at 10 µM: 65%
[28]
  % Inhibition at 10 μM, Adrenergic α1B: 99%

## COc1ccc2c3c1O[C@@H]1C(F)CCC4[C@H](C2)N(C(=O)C(C)(C)c2ccccc2)CC[C@]341 (some centres unmarked) [XT-216]
[2]
  half-life: 17.1 min
[3]
  IC50: > 10 µM
[4]
  half-life: 20.8 min
[7]
  half-life: 10.6 min
[8]
  half-life: 11.3 min
[9]
  half-life: 31.5 min
[12]; [35]
  IC50: > 10 µM
[12]; [36]
  IC50: > 10 µM
[29]
  % Inhibition at 10 μM, Transporter, Adenosine: 60%
[16]
  inhibition at 10 µM: 82%
[30]
  inhibition at 10 µM: 50%
[18]
  inhibition at 10 µM: 69%
[31]
  inhibition at 10 µM: 52%
[21]
  inhibition at 10 µM: 59%
[32]
  % Inhibition at 10 μM, GABA A, chloride channel, TBOB: 54%
[33]
  inhibition at 10 µM: 69%
[34]
  inhibition at 10 µM: 57%
